Like-named read-outs stand apart in the source and are kept apart here.
Biological target: GpIIb/IIIa receptor (Homo sapiens, UniProt P05106+P08514)
Assay: GpIIb/IIIa-Fibrinogen-Elisa (inhibition of fibrinogen-GpIIb/IIIa interaction)
Format: binding
Conditions: 1 hour incubation, optical density at 405 nm
Protocol: Microtitre plates are coated overnight with 2 μg/ml isolated activated GpIIb/IIIa receptor. After removing the unbound receptor by washing several times, the surface of the plates is blocked with 1% casein and washed again. The test substance is added in the required concentrations and the plates are incubated for 10 minutes while shaking. The natural ligand of the gpIIb/IIIa receptor, fibrinogen, is added. After 1 hour of incubation the unbound fibrinogen is removed by washing several times and the bound fibrinogen is determined by a peroxidase-conjugated anti-fibrinogen monoclonal antibody by measuring the optical density at 405 nm in an ELISA instrument. Inhibition of a fibrinogen-GpIIb/IIIa interaction results in a low optical density. An IC50 is calculated based on a concentration-effect curve.
The GpIIb/IIIa-Fibrinogen-Elisa is a modification of assays described in the following literature:
Nachman, R. L. & Leung, L. L. K. (1982): Complex formation of platelet membrane glycoproteins IIb and IIIa with fibrinogen. J. Clin. Invest. 69:263-269. Wright, P. S. et al. (1993): An echistatin C-terminal peptide activated GpIIbIIIa binding to fibrinogen, fibronectin, vitronectin and collagen type I and type IV. Biochem. J. 293:263-267.

[1] = isolated activated GpIIb/IIIa receptor on microtitre plates, read-out: IC50

Chain of GpIIb/IIIa receptor (P08514 32-887 limits assumed): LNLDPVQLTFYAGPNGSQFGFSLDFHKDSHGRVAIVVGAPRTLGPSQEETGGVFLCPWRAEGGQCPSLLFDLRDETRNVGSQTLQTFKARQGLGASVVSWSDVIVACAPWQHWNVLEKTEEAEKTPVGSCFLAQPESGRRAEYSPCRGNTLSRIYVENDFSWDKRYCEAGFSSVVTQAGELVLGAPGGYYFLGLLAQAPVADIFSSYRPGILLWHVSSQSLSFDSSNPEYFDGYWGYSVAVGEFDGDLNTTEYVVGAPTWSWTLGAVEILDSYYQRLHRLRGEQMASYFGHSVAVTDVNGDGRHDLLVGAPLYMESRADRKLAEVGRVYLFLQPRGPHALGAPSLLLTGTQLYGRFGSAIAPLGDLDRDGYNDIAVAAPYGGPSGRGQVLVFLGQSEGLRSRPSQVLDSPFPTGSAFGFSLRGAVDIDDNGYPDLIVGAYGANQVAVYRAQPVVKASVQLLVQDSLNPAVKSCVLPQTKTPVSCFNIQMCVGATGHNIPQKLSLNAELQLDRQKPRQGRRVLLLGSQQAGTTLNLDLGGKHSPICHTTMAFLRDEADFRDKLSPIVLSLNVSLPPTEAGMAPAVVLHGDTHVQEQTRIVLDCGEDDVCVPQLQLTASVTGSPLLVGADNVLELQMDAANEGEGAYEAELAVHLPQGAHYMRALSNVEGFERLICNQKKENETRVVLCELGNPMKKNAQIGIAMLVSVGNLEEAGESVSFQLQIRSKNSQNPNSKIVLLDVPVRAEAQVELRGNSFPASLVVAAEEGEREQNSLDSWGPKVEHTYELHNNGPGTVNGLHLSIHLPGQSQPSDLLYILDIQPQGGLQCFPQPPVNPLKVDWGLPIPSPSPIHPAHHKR
Chain of GpIIb/IIIa receptor (P08514 891-1039 limits assumed): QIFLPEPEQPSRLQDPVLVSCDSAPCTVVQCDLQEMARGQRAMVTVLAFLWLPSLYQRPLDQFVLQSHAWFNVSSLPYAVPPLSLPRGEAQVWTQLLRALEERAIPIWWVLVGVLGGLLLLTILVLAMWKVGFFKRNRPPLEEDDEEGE
Chain of GpIIb/IIIa receptor (P05106 27-788): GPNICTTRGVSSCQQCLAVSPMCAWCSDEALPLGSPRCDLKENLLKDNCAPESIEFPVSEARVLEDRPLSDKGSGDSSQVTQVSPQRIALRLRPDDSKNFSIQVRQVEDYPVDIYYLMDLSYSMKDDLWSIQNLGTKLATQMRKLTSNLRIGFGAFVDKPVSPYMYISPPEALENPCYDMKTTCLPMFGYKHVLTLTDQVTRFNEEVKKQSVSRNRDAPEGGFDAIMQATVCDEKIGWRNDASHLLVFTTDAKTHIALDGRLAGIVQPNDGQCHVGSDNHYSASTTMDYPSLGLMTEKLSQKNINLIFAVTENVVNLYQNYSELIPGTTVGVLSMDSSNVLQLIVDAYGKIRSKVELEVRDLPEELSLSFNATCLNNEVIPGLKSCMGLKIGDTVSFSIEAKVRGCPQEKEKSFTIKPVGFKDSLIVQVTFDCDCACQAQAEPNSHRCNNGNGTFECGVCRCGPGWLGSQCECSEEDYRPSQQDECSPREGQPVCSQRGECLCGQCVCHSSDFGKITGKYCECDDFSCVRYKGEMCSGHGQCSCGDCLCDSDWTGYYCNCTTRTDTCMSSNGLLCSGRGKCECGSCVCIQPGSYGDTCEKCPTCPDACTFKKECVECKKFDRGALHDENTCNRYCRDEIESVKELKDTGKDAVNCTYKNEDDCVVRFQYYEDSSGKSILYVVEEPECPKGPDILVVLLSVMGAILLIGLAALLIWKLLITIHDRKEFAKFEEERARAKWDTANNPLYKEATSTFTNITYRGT

| IC50 [1] [µM] | IC50 (reference substance, isolated activated GpIIb/IIIa receptor, read-out: IC50 value in the above assay (comparative experiments)) [µM] | Compound |
| --- | --- | --- |
| 0.2 |  | O=C(O)CC1(O)CCC(N2CCC(CCCNc3ccncc3)CC2)CC1 (stereo not shown) [12 (page 35), (1-Hydroxy-4-{4-[3-(pyridin-4-ylamino)-propyl]-piperidin-1-yl}-cyclohexyl)-acetic acid] |
| 0.14 |  | O=C(O)CC1(O)CCC(N2CCC(Nc3ccncc3)CC2)CC1 (stereo not shown) [Example 5] |
|  | 2.5 | O=C(O)CC1(O)CCC(N2CCN(c3ccncc3)CC2)CC1 (stereo not drawn) [cis-1-hydroxy-4-[4-(4-pyridyl)-piperazin-1-yl]-acetic acid, reference compound] |
| 0.3 |  | (4-{3-[(Pyridin-4-ylamino)-propyl]-piperidin-1-yl}-cyclohexyl)-acetic acid [62 (page 40)] |

Reference: patent US5786371A, “Pyridine and pyridazine derivatives, processes for the production thereof and pharmaceutical agents containing these compounds” (Boehringer Mannheim GmbH, priority 1995, dated 1998)
